According to US20040033483A1, “Cell diagnosing method, and device and apparatus use for it” (priority 2001, published 2004):

Key:
[1] = system: normal cells prepared from the fundus of rat stomach; test: Electrical signal of cells on the cell diagnosis device on applying Carbachol, normal cells; format: cell-based
Method: (§1) A cell diagnosis apparatus comprising the device shown in FIG. 3 as a measuring section (signal source) 101, which has a configuration shown in FIG. 4, was used. Normal cells and cancer cells were prepared as samples from the fundus of rat stomach. The apparatus was used to measure the action of a chemical substance, Carbachol, on these samples.
Carbachol is a chemical substance known as an analog of the neurotransmitter Acetylcholine. Carbachol (manufactured by Sigma) was dissolved in Krebs Ringer solution to concentrations of 0, 0.1, 0.3, 1, 3 10, 30 and 100 μM. The solutions having these concentrations were used to measure an electrical signal when each solution was applied to the normal cells and the cancer cells derived from the fundus of stomach. For each Carbachol concentration, time-series signal values for 10 seconds were obtained from the measuring section (signal source) 101 comprising the cell diagnosis device shown in FIG. 3, and was sampled at intervals of 100 msec to obtain time-series data, and the standard deviation of the sampling data was calculated. […]
(§2) Before and after 50 μM-concentration Carbachol was applied to the normal cells and the cancer cells prepared from the fundus of rat stomach, signals were obtained from the measuring section (signal source) 101, and the standard deviation of the signals was calculated in a manner similar to that of Example 1.

[2] = system: cancer cells prepared from the fundus of rat stomach; test: Electrical signal of cells on the cell diagnosis device on applying Carbachol, cancer cells; format: cell-based
Method: as §1
Carbachol is a chemical substance known as an analog of the neurotransmitter Acetylcholine. Carbachol (manufactured by Sigma) was dissolved in Krebs Ringer solution to concentrations of 0, 0.1, 0.3, 1, 3 10, 30 and 100 μM. The solutions having these concentrations were used to measure an electrical signal when each solution was applied to the normal cells and the cancer cells derived from the fundus of stomach. For each Carbachol concentration, time-series signal values for 10 seconds were obtained from the measuring section (signal source) 101 comprising the cell diagnosis device shown in FIG. 3, and was sampled at intervals of 100 msec to obtain time-series data, and the standard deviation of the sampling data was calculated. The average of the standard deviation was plotted in FIG. 8. In FIG. 8, black circles indicate results obtained from cells including cancer cells and white circles indicate results obtain from normal cells.
The apparatus having the configuration shown in FIG. 5, which comprises the device shown in FIG. 3 as a measuring section (signal source), was used to measure the action of Carbachol on samples, where the samples were normal cells and cells including cancer cells prepared from the fundus of rat stomach, as in Example 1.
as §2

[3] = 50 μM Carbachol, before versus after application, 10 seconds, FIG. 9
[4] = Carbachol 0, 0.1, 0.3, 1, 3, 10, 30 and 100 μM in Krebs Ringer solution, 10 seconds signal, FIG. 8

## C[N+](C)(C)CCOC(N)=O [Carbachol]
[1]; [3]
  average of the standard deviation every 5 msec after applying Carbachol: increased
[1]; [4]
  average of the standard deviation of the electrical signal at 100 msec intervals: the higher the Carbachol concentration, the higher the average of the standard deviation
[2]; 50 μM Carbachol, FIG. 9
  average and half-width of the normal distribution of standard deviations compared with the normal cell: larger average and half-width values than those of the normal cell
[2]; [3]
  average of the standard deviation every 5 msec after applying Carbachol: increased
[2]; [4]
  average of the standard deviation of the electrical signal at 100 msec intervals: the higher the Carbachol concentration, the higher the average of the standard deviation
